Measured values from patent US20240150366A1, “4-AMINOQUINAZOLINE COMPOUND” (Astellas Pharma Inc., priority 2021, published 2024).

Assays:
[1] = target: KRAS G12D/SOS/c-Raf complex (Homo sapiens (Human), UniProt P01116, G12D); test: KRAS G12D/SOS/c-Raf complex formation inhibitory activity (TR-FRET); assay type: biochemical; details: human recombinant proteins, 1 hour at room temperature, read-out: IC50, KRAS G12D/SOS/c-Raf complex formation inhibition
Description: Using human recombinant KRAS G12D, SOS and c-Raf proteins, the inhibitory activity of subject compounds on the complex formation of the proteins was examined by a time-resolved fluorescence resonance energy transfer (TR-FRET) method.
Biotinylated AviTag-KRAS G12D (amino acid region of 1-185, GDP) (2.5 μL; 400 nM) and subject compounds dissolved in an assay buffer (50 mM HEPES, 150 mM NaCl, 5 mM MgCl2, 0.05% Tween 20, pH 7.0) were added to a 384-well plate (from Corning) in a liquid volume of 2.5 μL at 40,000 nM to 40 nM. Son of Sevenless (SOS) (amino acid region of 564-1049, 2.5 μL; 1.3 μM) and c-Raf (amino acid region of 51-131) GST (2.5 μL; 130 nM) containing GTP (from Sigma-Aldrich; 2 μM) were added to the plate, and the plate was allowed to stand for 1 hour at room temperature. Then, a mixture liquid (10 μL) of LANCE Ulight-anti-GST (from PerkinElmer; 120 nM) and LANCE Eu-W1024 labeled Streptoavidin (from PerkinElmer; 100 ng/mL) was added, and the 620-nm and 665-nm fluorescence intensities were measured using EnVision 2104 (from PerkinElmer) under the conditions of an excitation wavelength of 337 nm. After standardizing the values with the fluorescence intensity at a reference wavelength of 620 nm, the 50% inhibitory concentrations (IC50) were calculated by Sigmoid-Emax model nonlinear regression analysis with the signaling value in treatment with the solvent taken as 0% inhibition and with the signaling value without the addition of GTP taken as 100% inhibition.

[2] = test system: KRAS G12D mutant-positive pancreatic cancer line AsPC-1; test: Non-anchorage-dependent cell growth inhibitory activity in AsPC-1 (spheroid 3D culture); assay type: cell-based; details: Homo sapiens, ASPC1, 144 h, read-out: IC50, non-anchorage-dependent cell growth inhibition
Description: The non-anchorage-dependent cell growth inhibitory activities of subject compounds were evaluated by spheroid 3D cell culture.
AsPC-1 cells were seeded at 36 μL/well on a low-cell-adhesive round bottom 384-well plate (Prime Surface: from Sumitomo Bakelite) to give 5×10^2 cells per well. The cell culture was performed under the same conditions as in the Test Example 2.
The next day, the subject compounds (6 points having final concentrations in the range of 10 μM to 3.0 nM) and DMSO, which was the solvent for the subject compounds, as a negative control were diluted 100-fold with a fresh medium and were each added at 4 μL per well. After culturing in the presence of 5% CO2 at 37° C. for six days, CellTiter Glo 2.0 (from Promega) was added at 20 μL per well. After stirring with a plate mixer (from FINEPCR) at normal temperature for an hour, the luminescent signals were measured with ARVO X3 (from PerkinElmer).
With the signaling value in treatment with DMSO taken as 0% inhibition and with the signaling value in the medium alone without cells taken as 100% inhibition, the 50% inhibition values (IC50) were calculated by Sigmoid-Emax model nonlinear regression analysis.

[3] = test system: ERK phosphorylation (Thr202/Tyr204) in KRAS G12D mutant-positive pancreatic cancer line AsPC-1; test: ERK phosphorylation inhibitory activity in AsPC-1 (cell ELISA); assay type: cell-based; details: Homo sapiens, ASPC1, 2 h, read-out: IC50, ERK phosphorylation inhibition
Description: The ERK phosphorylation inhibitory activities of subject compounds were evaluated by measuring phosphorylation of the 202th threonine (Thr202) and the 204th tyrosine (Tyr204) of ERK located downstream of the KRAS signal by cell ELISA.
AsPC-1 cells (ATCC, CRL-1682) were seeded at 36 μL/well on a 384-well plate (from Greiner bio-one) to give 2.0×10^4 cells per well. As for the cell culture conditions, RPMI-1640 medium (from Sigma-Aldrich) containing 10% fetal bovine serum (from GE Life Sciences) was used in the presence of 5% CO2 at 37° C.
The next day, the subject compounds (6 points having final concentrations in the range of 10 μM to 0.3 nM), trametinib (MEK inhibitor) of a final concentration of 1 μM as a positive control and DMSO, which was the solvent for the subject compounds, as a negative control were diluted 100-fold with a fresh medium and were each added at 4 μL per well, followed by culturing for 2 hours. After culturing, a 30% glyoxal solution (40% glyoxal [from Wako] was diluted with Phosphate Buffered Saline [PBS; from Wako) was quickly added at 30 μL per well, and the plate was allowed to stand for an hour at room temperature to thus immobilize the cells. Then, the plate was centrifuged (110× g, seven seconds, hereinafter centrifugation was performed under the same conditions unless otherwise specified) to remove the supernatant, and 0.1% Triton X-100 (from Amersham Biosciences)—containing PBS was added at 20 μL per well. After allowing the plate to stand for 10 minutes at room temperature, the supernatant was removed by centrifugation, and the same operation was further repeated. Next, 0.5% sodium dodecyl sulfate (SDS; from Invitrogen)-containing PBS was added at 20 μL per well. The plate was allowed to stand at room temperature for 30 minutes and was then centrifuged to remove the supernatant. Subsequently, a blocking solution (Intercept Blocking Buffer; from LI-COR Biosciences) was added at 20 μL per well, and the plate was allowed to stand for an hour at room temperature. The supernatant was removed by centrifugation, and an ERK (Thr202/Tyr204) phosphorylation antibody (Phospho-p44/42 MAPK (Erk 1/2) (Thr202/Tyr204) (D13.14.4E) XP Rabbit mAb; from Cell Signaling Technology) diluted 2,500-fold with the blocking solution was added at 10 μL per well as a primary antibody. The plate was allowed to stand at 4° C. overnight.
The next day, the plate was centrifuged to remove the supernatant, and 0.05% Tween-20-containing PBS (from Thermo Scientific; 20× PBS Tween-20 was diluted 20-fold with ion exchange water and used) was added at 20 μL per well. The supernatant was removed by centrifugation to thus wash each well. The washing was performed three times in total. After washing, an IRDye 800CW Goat anti-Rabbit IgG (from LI-COR Biosciences) diluted 1,000-fold with the blocking solution was added at 10 μL per well as a secondary antibody, and the plate was allowed to stand for an hour at room temperature. The plate was centrifuged to remove the supernatant, and each well was washed three times with 0.05% Tween-20-containing PBS in the same manner as after the primary antibody reaction. Centrifugation after the third washing was performed at 171×g for 17 seconds. After removing the supernatant, the plate was dried as it was with air at room temperature for three hours or more, and the 800-nm fluorescent signals were measured with Aerius (from LI-COR Biosciences).
With the signaling value at the time of addition of DMSO taken as 0% inhibition and with the signaling value at the time of addition of […] trametinib taken as 100% inhibition, the 50% inhibition values (IC50) were calculated by Sigmoid-Emax model nonlinear regression analysis.

Sequence of KRAS G12D/SOS/c-Raf complex (P01116 other isoform, or with tags, fused parts or gaps G12D): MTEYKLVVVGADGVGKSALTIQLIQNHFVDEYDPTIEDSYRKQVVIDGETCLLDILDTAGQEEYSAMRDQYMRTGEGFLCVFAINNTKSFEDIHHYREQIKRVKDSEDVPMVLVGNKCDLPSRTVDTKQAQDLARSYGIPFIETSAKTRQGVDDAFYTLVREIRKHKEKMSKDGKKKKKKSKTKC

Row | SMILES | IC50 [1] [nM] | IC50 [2] [nM] | IC50 [3] [nM]
1 | CCN1CCN(Cc2ccc(COc3c(-c4c(C)c(F)cc5[nH]ncc45)c(C4CC4)cc4c(N5C[C@@H]6C[C@H]5CN6)nc(OC5CCOCC5)nc34)cc2)C(=O)C1 [Example 4, 1-({4-[({6-cyclopropyl-4-[(1S,4S)-2,5-diazabicyclo[2.2.1]heptan-2-yl]-7-(6-fluoro-5-methyl-1H-indazol-4-yl)-2-[(oxan-4-yl)oxy]quinazolin-8-yl}oxy)methyl]phenyl}methyl)-4-ethylpiperazin-2-one] | 100 | 99 | 37
2 | Cc1c(F)cc2[nH]ncc2c1-c1c(C2CC2)cc2c(N3C[C@@H]4C[C@H]3CN4)nc(OC3CCOCC3)nc2c1OCc1ccc(CN2CCN(C3CCOCC3)CC2=O)cc1 [Example 5, 1-({4-[({6-cyclopropyl-4-[(1S,4S)-2,5-diazabicyclo[2.2.1]heptan-2-yl]-7-(6-fluoro-5-methyl-1H-indazol-4-yl)-2-[(oxan-4-yl)oxy]quinazolin-8-yl}oxy)methyl]phenyl}methyl)-4-(oxan-4-yl)piperazin-2-one] | 107 | 83 | 32
3 | Cc1c(F)cc2[nH]ncc2c1-c1c(C2CC2)cc2c(N3C[C@@H]4C[C@H]3CN4)nc(OC3CCOCC3)nc2c1OCc1ccc(CN2CCN(C(C)C)CC2=O)cc1 [Example 6, 1-({4-[({6-cyclopropyl-4-[(1S,4S)-2,5-diazabicyclo[2.2.1]heptan-2-yl]-7-(6-fluoro-5-methyl-1H-indazol-4-yl)-2-[(oxan-4-yl)oxy]quinazolin-8-yl}oxy)methyl]phenyl}methyl)-4-(propan-2-yl)piperazin-2-one] | 91 | 92 | 36
4 | Cc1c(F)cc2[nH]ncc2c1-c1c(C2CC2)cc2c(N3C[C@@H]4C[C@H]3CN4)nc(O[C@@H]3CCCc4cnccc43)nc2c1OCc1ccc(Cn2c(=O)n(C)c3ncccc32)cc1 [Example 8, 1-[(4-{[(6-cyclopropyl-4-[(1S,4S)-2,5-diazabicyclo[2.2.1]heptan-2-yl]-7-(6-fluoro-5-methyl-1H-indazol-4-yl)-2-{[(5R)-5,6,7,8-tetrahydroisoquinolin-5-yl]oxy}quinazolin-8-yl)oxy]methyl}phenyl)methyl]-3-methyl-1,3-dihydro-2H-imidazo[4,5-b]pyridin-2-one] | 40 | 73 | 30
5 | Cc1cc(C)n2cc(Cc3ccc(COc4c(-c5c(C)c(F)cc6[nH]ncc56)c(C5CC5)cc5c(N6C[C@@H]7C[C@H]6CN7)nc(OC6CCOCC6)nc45)cc3)nc2n1 [Example 9, 6-cyclopropyl-4-[(1S,4S)-2,5-diazabicyclo[2.2.1]heptan-2-yl]-8-({4-[(5,7-dimethylimidazo[1,2-a]pyrimidin-2-yl)methyl]phenyl}methoxy)-7-(6-fluoro-5-methyl-1H-indazol-4-yl)-2-[(oxan-4-yl)oxy]quinazoline] | 44 | 84 | 44
6 | Cc1c(F)cc2[nH]ncc2c1-c1c(C2CC2)cc2c(N3C[C@@H]4C[C@H]3CN4)nc(OCc3cccnc3C(C)C)nc2c1OCc1ccc(Cn2c(=O)n(C)c3ncccc32)cc1 [Example 10, 1-[(4-{[(6-cyclopropyl-4-[(1S,4S)-2,5-diazabicyclo[2.2.1]heptan-2-yl]-7-(6-fluoro-5-methyl-1H-indazol-4-yl)-2-{[2-(propan-2-yl)pyridin-3-yl]methoxy}quinazolin-8-yl)oxy]methyl}phenyl)methyl]-3-methyl-1,3-dihydro-2H-imidazo[4,5-b]pyridin-2-one] | 33 | 77 | 41
7 | Cc1c(F)cc2[nH]ncc2c1-c1c(C2CC2)cc2c(N3C[C@@H]4C[C@H]3CN4)nc(OC3CCOCC3)nc2c1OCc1ccc(Cn2nc(-c3cnccn3)nc2C)cc1 [Example 11, 6-cyclopropyl-4-[(1S,4S)-2,5-diazabicyclo[2.2.1]heptan-2-yl]-7-(6-fluoro-5-methyl-1H-indazol-4-yl)-8-[(4-{[5-methyl-3-(pyrazin-2-yl)-1H-1,2,4-triazol-1-yl]methyl}phenyl)methoxy]-2-[(oxan-4-yl)oxy]quinazoline] | 110 | 133 | 81
8 | Cc1c(F)cc2[nH]ncc2c1-c1c(C2CC2)cc2c(N3C[C@@H]4C[C@H]3CN4)nc(OC3CCOCC3)nc2c1OCc1ccc(Cn2nc3n(c2=O)CCOC3)cc1 [Example 12, 2-({4-[({6-cyclopropyl-4-[(1S,4S)-2,5-diazabicyclo[2.2.1]heptan-2-yl]-7-(6-fluoro-5-methyl-1H-indazol-4-yl)-2-[(oxan-4-yl)oxy]quinazolin-8-yl}oxy)methyl]phenyl}methyl)-2,5,6,8-tetrahydro-3H-[1,2,4]triazolo[3,4-c][1,4]oxazin-3-one] | 74 | 153 | 72
9 | Cc1c(F)cc2[nH]ncc2c1-c1c(C2CC2)cc2c(N3C[C@@H]4C[C@H]3CN4)nc(OC3CCOCC3)nc2c1OCc1ccc(Cc2nc3ncccn3n2)cc1 [Example 13, 6-cyclopropyl-4-[(1S,4S)-2,5-diazabicyclo[2.2.1]heptan-2-yl]-7-(6-fluoro-5-methyl-1H-indazol-4-yl)-2-[(oxan-4-yl)oxy]-8-({4-[([1,2,4]triazolo[1,5-a]pyrimidin-2-yl)methyl]phenyl}methoxy)quinazoline] | 77 | 130 | 78
